# Source: patent US20130059874A1, “SUBSTITUTED N-PHENYL SPIROLACTAM BIPYRROLIDINES, PREPARATION AND THERAPEUTIC USE THEREOF” (SANOFI, priority 2010, published 2013)
# Structures can show the parent of a compound that is named as a salt.
# Biological target: T1, rhesus (Macacca Mulatta) H3 receptor (Macaca mulatta, UniProt Q865E1)
# T1 construct: pcDNA5/FRT/TO (Invitrogen) containing the rhesus monkey (Macacca Mulatta) 445 amino acid H3 receptor
# Assay: Rhesus H3 radioligand binding assay ([3H]-Methylhistamine displacement, WGA SPA beads)
# Parameters: species or system rhesus monkey (Macacca Mulatta)
# Settings: [3H]-Methylhistamine 2 nM, rhesus H3 membranes, 25° C., 1 hour; Cheng-Prusoff
# Description: Rhesus H3 membranes were prepared from the Flp-In T-REx 293 Cell Line (Invitrogen) stably transfected with pcDNA5/FRT/TO (Invitrogen) containing the rhesus monkey (Macacca Mulatta) 445 amino acid H3 receptor. (Genbank #AY231164). Stably transfected cultures were amplified in tissue culture flasks by standard tissue culture methods and induced to express rhesus H3 by exposure to 500 ng/ml tetracycline (Cellgro) for 24 hours. After induction, cells were dissociated from flasks utilizing Cell Stripper (Cellgro). Cells were centrifuged (1 K×g, 5 min) and pellet frozen in an ethanol-dry ice bath to disrupt cell membranes. Frozen cell pellet was re-suspended in 5 mM HEPES (pH 7.4, Invitrogen) at 10ml/1000 cm2 of harvested cells. The cell suspension was drawn through an 18 gauge needle (2-3×) followed by a 23 gauge needle (2-3×) to further disrupt cell membranes. The cell suspension was centrifuged (40K×g, 30 min). Cell membrane pellet was re-suspended in 5 mM HEPES (pH 7.4, Invitrogen) at a final protein concentration of 10 mg/ml. Rhesus H3 membranes were stored under liquid nitrogen prior to use in [3H]-Methylhistamine and GTPγS radioligand binding assays.
# Rhesus H3 radioligand binding assay was performed using rhesus H3 receptor membranes (prepared as described above), [3H]-Methylhistamine (Perkin Elmer) and WGA SPA beads (wheat germ agglutinin scintillation proximity assay) beads (Amersham). The assay was performed in 96-well Opti-Plates (Packard). Each reaction contained 50 μl rhesus H3 membranes (20-30 μg total protein), 50 μl WGA SPA beads (0.1 μg) and 50 μl of 83Ci/mmol [^3H]-Methylhistamine (final concentration 2 nM) and 50 μl of tested compound. The compounds of this invention and/or vehicle were diluted with binding buffer from 10 mM DMSO stocks. Assay plates were sealed with TopSeal (Perkin Elmer) and mixed on shaker (25° C., 1 hour). Assay plates were read on TopCount scintillation counter (Packard). Results were analyzed by Hill transformation and Ki values were determined by Cheng-Prusoff equation.
# T1 sequence (Q865E1 1-445): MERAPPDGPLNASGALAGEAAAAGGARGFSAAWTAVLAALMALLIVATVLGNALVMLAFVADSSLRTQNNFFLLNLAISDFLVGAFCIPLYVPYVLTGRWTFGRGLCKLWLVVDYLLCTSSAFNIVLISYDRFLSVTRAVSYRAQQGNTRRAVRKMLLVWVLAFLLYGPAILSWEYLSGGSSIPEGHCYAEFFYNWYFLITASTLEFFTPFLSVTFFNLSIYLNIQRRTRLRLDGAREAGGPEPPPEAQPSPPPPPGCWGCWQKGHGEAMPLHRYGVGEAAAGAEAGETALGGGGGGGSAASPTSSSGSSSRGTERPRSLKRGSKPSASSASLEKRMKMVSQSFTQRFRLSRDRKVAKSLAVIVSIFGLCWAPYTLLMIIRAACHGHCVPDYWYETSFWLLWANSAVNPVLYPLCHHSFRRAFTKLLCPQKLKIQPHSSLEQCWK
row,Structure (SMILES),Ki
1,"C[C@H]1CCCN1[C@H]1CCN(c2ccc(N3CCC4(CCCCC4)C3=O)c(F)c2)C1 [Example 9, 2-[2-Fluoro-4-((2S,3′S)-2-methyl-[1,3′]bipyrrolidinyl-1′-yl)-phenyl]-2-aza-spiro[4.5]decan-1-one]",41.6 nM
2,"Cc1cc(N2CCC(N3CCC[C@@H]3C)CC2)ccc1N1CCCC2(CCCC2)C1=O [Example 2, 7-{2-Methyl-4-[4-((S)-2-methyl-pyrrolidin-1-yl)-piperidin-1-yl]-phenyl}-7-aza-spiro[4.5]decan-6-one trifluoro-acetic acid salt]",12.7 nM
3,"Cc1cc(N2CCC(N3CCC[C@@H]3C)CC2)ccc1N1CCC2(CCC(C(=O)O)CC2)C1=O (stereo partly drawn) [Example 5, 2-{2-Methyl-4-[4-((S)-2-methyl-pyrrolidin-1-yl)-piperidin-1-yl]-phenyl}-1-oxo-2-aza-spiro[4.5]decane-8-carboxylic acid]",58 nM
4,"Cc1cc(N2CCC(N3CCC[C@@H]3C)CC2)ccc1N1CCC2(CCC(O)CC2)C1=O (stereo partly drawn) [Example 3, 8-Hydroxy-2-{2-methyl-4-[4-((S)-2-methyl-pyrrolidin-1-yl)-piperidin-1-yl]-phenyl}-2-aza-spiro[4.5]decan-1-one]",30.7 nM
5,"C[C@H]1CCCN1C1CCN(c2ccc(N3CCC4(CCCCC4)C3=O)c(N)c2)CC1 [Example 4, 2-{2-Amino-4-[4-((S)-2-methyl-pyrrolidin-1-yl)-piperidin-1-yl]-phenyl}-2-aza-spiro[4.5]decan-1-one trifluoro-acetate]",11.4 nM
6,"C[C@H]1CCCN1[C@@H]1CCN(c2ccc(N3CCC4(CCCCC4)C3=O)c(N)c2)C1 [Example 6, 2-[2-Amino-4-((2S,3′R)-2-methyl-[1,3′]bipyrrolidinyl-1′-yl)-phenyl]-2-aza-spiro[4.5]decan-1-one trifluoro-acetic acid salt]",35.8 nM
7,"Cc1cc(N2CC[C@H](N3CCC[C@@H]3C)C2)ccc1N1CCC2(CCC(O)CC2)C1=O (single isomer, unassigned) [Example 11]",35 nM

# These reach a lower Ki. Values come first.
row,Ki,Structure (SMILES)
1,2.65 nM,COc1cc(N2CC[C@H](N3CCC[C@@H]3C)C2)ccc1N1CCC2(CCCCC2)C1=O [Example 10]
2,6.44 nM,"C[C@H]1CCCN1[C@H]1CCN(c2ccc(N3CCC4(CCCCC4)C3=O)cc2)C1 [Example 7, 2-[4-((2S,3′S)-2-Methyl-[1,3′]bipyrrolidinyl-1′-yl)-phenyl]-2-aza-spiro[4.5]decan-1-one]"
3,0.477 nM,"Cc1cc(N2CCC(N3CCC[C@@H]3C)CC2)ccc1N1CCC2(CCCCC2)C1=O [Example 1, 2-{2-Methyl-4-[4-((S)-2-methyl-pyrrolidin-1-yl)-piperidin-1-yl]-phenyl}-2-aza-spiro[4.5]decan-1-one trifluoroacetate]"
4,10.6 nM,"Cc1cc(N2CC[C@H](N3CCC[C@@H]3C)C2)ccc1N1CCC2(CCCCC2)C1=O [Example 8, 2-[2-Methyl-4-((2S,3′S)-2-methyl-[1,3]bipyrrolidinyl-1′-yl)-phenyl]-2-aza-spiro[4.5]decan-1-one]"
